Assay results published in patent US11464854B2, “Methods and compositions relating to adjuvants” (Children's Medical Center Corporation, priority 2017, dated 2022).

Legend:
PnPS-specific B cells = experiment: Pneumococcal polysaccharide-specific B cells (ELISpot); format: in vivo, rhesus macaques (Macaca mulatta); settings: control condition, adjuvant alone
Description: Characterization of pneumococcal polysaccharide-specific B cells. Rhesus macaque peripheral blood mononuclear cells (PBMCs) were labeled with anti-CD14-PE (clone M5E2), CD20-V450 (clone L27), CD27-PE.Cy7 (clone M-T271), CD4-FITC (clone SK3) Ab's (BD Biosciences). Sorting of CD14+ monocytes, CD20+CD27− naïve B cells, CD20+CD27+ memory B cells, and CD4+Th cells employed a FACSAria™ II cell sorter. Anti-pneumococcal B cells in peripheral blood were enumerated in sorted B cell populations. […] Secreted immunoglobulins were detected using horseradish peroxidase-conjugated goat-anti-rhesus immunoglobulin (Nordic Immunological Laboratories; Eindhoven, The Netherlands). Spots were developed using 3,3′,5,5′-Tetramethylbenzidine (TMB) (Mabtech, Mariemont; OH, USA) and visualized and counted using a series 5 ELISpot™ analyzer (Cellular Technology Limited, Shaker Heights; OH, USA). The fraction of pneumococcal polysaccharide-specific B cells was quantified as the ratio of the spots detected in polysaccharide-coated wells to spots detected in immunoglobulin-coated wells, after correction for dilution.

[1] = Adsorption onto alum derived from DTaP vaccine (RP-HPLC); format: physicochemical; settings: within 1-2 hr, all circumstances tested
human TLR7 = target: T1, human TLR7 (Homo sapiens, UniProt Q9NYK1); experiment: HEK293 NF-kB SEAP reporter assay, human TLR7; format: cell-based; settings: among six IMQ and OA compounds, SEAP fold change
T1 construct: host or cells: HEK293 with NF-kB-responsive SEAP reporter
T1 sequence (Q9NYK1 27-1049): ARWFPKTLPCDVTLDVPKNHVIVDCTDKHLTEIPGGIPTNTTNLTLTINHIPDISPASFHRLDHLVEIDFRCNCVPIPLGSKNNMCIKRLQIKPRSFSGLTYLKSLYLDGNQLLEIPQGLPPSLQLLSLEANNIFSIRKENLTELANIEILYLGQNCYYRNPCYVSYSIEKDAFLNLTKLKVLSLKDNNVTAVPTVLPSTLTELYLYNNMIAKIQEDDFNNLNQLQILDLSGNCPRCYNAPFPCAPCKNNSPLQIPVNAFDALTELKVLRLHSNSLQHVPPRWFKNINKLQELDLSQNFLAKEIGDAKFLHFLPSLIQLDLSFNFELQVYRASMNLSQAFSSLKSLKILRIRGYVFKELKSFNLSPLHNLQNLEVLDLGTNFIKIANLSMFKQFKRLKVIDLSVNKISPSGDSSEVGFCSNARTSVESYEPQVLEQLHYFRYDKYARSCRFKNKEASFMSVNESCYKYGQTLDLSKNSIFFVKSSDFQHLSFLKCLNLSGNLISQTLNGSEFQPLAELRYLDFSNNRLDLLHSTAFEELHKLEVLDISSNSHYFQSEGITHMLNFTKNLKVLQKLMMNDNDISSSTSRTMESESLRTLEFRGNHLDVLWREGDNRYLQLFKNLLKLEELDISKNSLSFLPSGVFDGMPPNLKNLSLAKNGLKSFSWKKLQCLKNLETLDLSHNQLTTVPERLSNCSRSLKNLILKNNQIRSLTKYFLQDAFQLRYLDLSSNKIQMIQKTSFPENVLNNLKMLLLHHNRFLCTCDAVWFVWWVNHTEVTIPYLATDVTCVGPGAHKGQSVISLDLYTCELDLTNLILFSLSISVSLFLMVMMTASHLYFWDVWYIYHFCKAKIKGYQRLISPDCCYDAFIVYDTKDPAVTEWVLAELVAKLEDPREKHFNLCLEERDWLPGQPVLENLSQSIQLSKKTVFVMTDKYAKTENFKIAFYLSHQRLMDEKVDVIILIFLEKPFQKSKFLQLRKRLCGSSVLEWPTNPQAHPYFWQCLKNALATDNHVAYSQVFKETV
Method: Human embryonic kidney (HEK)293 cells expressing human TLR7 or TLR8 with an NF-κB-responsive secreted embryonic alkaline phosphatase (SEAP) reporter gene were obtained from Novus Biologicals (Littleton, Colo.) and Invivogen (San Diego, Calif.), respectively. Cells were maintained in DMEM with 10% HI-FBS and selection antibiotics per the manufacturer's instructions. Cells were plated at 5×10^5 cells/96-well and stimulated with indicated agonist(s) for 24 h. Supernatants were harvested and analyzed for NF-κB/SEAP activation using the QuantiBlue™ kit (Invivogen). Values are expressed as fold change in OD650 over vehicle-only treated samples.

| Compound | non-specific polysaccharide in vitro activation of B cells (PnPS-specific B cells) | adsorption to the alum/antigen [1] | potency for hTLR7 (human TLR7) |
| --- | --- | --- | --- |
| CCCCCCCCCCCCCCCCCC(=O)NCCCCOn1c(CCCC)nc2c(N)nc3ccccc3c21 [3M-052, N-[4-[(4-amino-2-butyl-1H-imidazo[4,5-c]quinolin-1-yl)oxy]butyl]octadecanamide] | ≤ 1.0% | – | – |
| CCCCc1nc2c(N)nc3ccccc3c2n1CCO [CRX-649] | – | 4-7% | greatest potency |
